Several values for one entry are separate records, joined by “and”; a condition that tells them apart may be missing. Equal entries are not always repeated. Inconclusive results and toxic doses are left out.

In this assay the test system is P388 leukemia ip, CD2F1 mice, survival T/C. The experiment in a line: NCI In Vivo Anticancer Drug Screen. Data for tumor model P388 Leukemia (intraperitoneal) in CD2F1 (CDF1) mice. As to conditions: endpoint: median survival time, higher = longer survival. In short, it runs like this: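 Mice carrying the transplanted tumor received test compound or vehicle. Survival was recorded in each group, and the value is the treated-group measurement divided by that of the vehicle-treated control group.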

The mark [1] stands for this setting: dose: 25.0 mg/kg/injection, schedule: Q01DX005 (ip), vehicle: saline with Tween-80.
The mark [2] stands for this setting: dose: 50.0 mg/kg/injection, schedule: Q01DX005 (ip), vehicle: saline with Tween-80.
Where [3] appears, read: dose: 60.0 mg/kg/injection, schedule: Q01DX005 (ip), vehicle: saline with Tween-80.
Setting [4] is: dose: 120.0 mg/kg/injection, schedule: Q01DX005 (ip), vehicle: saline with Tween-80.
[5] abbreviates: dose: 240.0 mg/kg/injection, schedule: Q01DX005 (ip), vehicle: saline with Tween-80.
The mark [6] stands for this setting: dose: 50.0 mg/kg/injection, schedule: Q01DX005 (ip), vehicle: Klucel (hydroxypropylcellulose) (HPC).
Where [7] appears, read: dose: 100.0 mg/kg/injection, schedule: Q01DX005 (ip), vehicle: Klucel (hydroxypropylcellulose) (HPC).
[8] abbreviates: dose: 200.0 mg/kg/injection, schedule: Q01DX005 (ip), vehicle: Klucel (hydroxypropylcellulose) (HPC).

For the compound `O=C(O)C(=O)O.[Ti].[c-]1[c-][c-][cH-][c-]1.[c-]1[c-][c-][cH-][c-]1`, the T/C is, setting by setting: (dose: 3.75 mg/kg/injection, schedule: Q01DX005 (ip), vehicle: Klucel (hydroxypropylcellulose) (HPC)) 94 % of control; (dose: 7.5 mg/kg/injection, schedule: Q01DX005 (ip), vehicle: Klucel (hydroxypropylcellulose) (HPC)) 99 % of control; (dose: 15.0 mg/kg/injection, schedule: Q01DX005 (ip), vehicle: Klucel (hydroxypropylcellulose) (HPC)) 99 % of control; (dose: 30.0 mg/kg/injection, schedule: Q01DX005 (ip), vehicle: Klucel (hydroxypropylcellulose) (HPC)) 100 % of control.
Regarding `Clc1ccc(C2=CSC3=NCCN23)cc1`, the T/C is 111 % of control (dose: 12.5 mg/kg/injection, schedule: Q01DX009 (ip), vehicle: Klucel (hydroxypropylcellulose) (HPC)) and 110 % of control (dose: 25.0 mg/kg/injection, schedule: Q01DX009 (ip), vehicle: Klucel (hydroxypropylcellulose) (HPC)).
Regarding `CN=C(NC)c1ccc(NC(=O)/C=C/C(=O)Nc2ccc(C(=NC)NC)cc2)cc1`, the T/C (dose: 12.5 mg/kg/injection, schedule: Q01DX005 (ip), vehicle: saline with Tween-80) was 101 % of control; the T/C under setting [1] is 99 % of control; the T/C under setting [2] was 98 % of control and 103 % of control.
With `N#CC1=C(N)OC(c2ccccc2)=C(C#N)C1c1ccccc1` (stereo unspecified), the T/C is 98 % of control under setting [3], 96 % of control under setting [4] and 91 % of control under setting [5].
For the compound `CC(C)(CO)CN1CCCCC1`, the T/C (dose: 50.0 mg/kg/injection, schedule: Q04DX003 (ip), vehicle: saline with Tween-80) is 100 % of control; the T/C (dose: 100.0 mg/kg/injection, schedule: Q04DX003 (ip), vehicle: saline with Tween-80) was 100 % of control; the T/C (dose: 200.0 mg/kg/injection, schedule: Q04DX003 (ip), vehicle: saline with Tween-80) is 100 % of control.
On to `C(=C\c1cc2ccc(C3=NCCN3)cc2o1)/c1cc2ccc(C3=NCCN3)cc2o1`, for which the T/C runs as follows: (dose: 12.5 mg/kg/injection, schedule: Q04DX003 (ip), vehicle: suspension in saline) 107 % of control; (dose: 25.0 mg/kg/injection, schedule: Q04DX003 (ip), vehicle: suspension in saline) 114 % of control; (dose: 50.0 mg/kg/injection, schedule: Q04DX003 (ip), vehicle: suspension in saline) 106 % of control; (dose: 100.0 mg/kg/injection, schedule: Q04DX003 (ip), vehicle: suspension in saline) 122 % of control.
As for `CCOC1=C(CC)C(=O)c2ccccc2C1=O`, the T/C under setting [6] is 100 % of control, the T/C under setting [7] is 100 % of control and the T/C under setting [8] was 107 % of control.
Turning to `Cc1cccc(Nc2n[nH]c(N)n2)c1`, the T/C reads like this: (dose: 50.0 mg/kg/injection, schedule: Q01DX009 (ip), vehicle: Klucel (hydroxypropylcellulose) (HPC)) 91 % of control; (dose: 100.0 mg/kg/injection, schedule: Q01DX009 (ip), vehicle: Klucel (hydroxypropylcellulose) (HPC)) 94 % of control.
For the compound `CC(=O)NNC1=NC(C)(C)CC1`, the T/C is, setting by setting: (dose: 100.0 mg/kg/injection, schedule: Q01DX001 (ip), vehicle: saline) 97 % of control; (dose: 200.0 mg/kg/injection, schedule: Q01DX001 (ip), vehicle: saline) 102 % of control; (dose: 400.0 mg/kg/injection, schedule: Q01DX001 (ip), vehicle: saline) 102 % of control.
`C=C(Cl)C(=NC(C)(C)C)Nc1ccccc1`: the T/C runs as follows: under setting [6], 102 % of control; under setting [7], 92 % of control.
For the compound `Cc1nc2ccccc2c2nnc(SCC(=O)N(Cc3ccccc3)c3ccccc3)n12`, the T/C reads like this: under setting [6], 99 % of control; under setting [7], 100 % of control; under setting [8], 102 % of control.
Turning to `Oc1cccc(Nc2ccccc2)c1`, the T/C reads like this: (dose: 50.0 mg/kg/injection, schedule: Q01DX009 (ip), vehicle: olive oil, sesame oil, peanut oil) 108 % of control; (dose: 100.0 mg/kg/injection, schedule: Q01DX009 (ip), vehicle: olive oil, sesame oil, peanut oil) 103 % of control; (dose: 200.0 mg/kg/injection, schedule: Q01DX009 (ip), vehicle: olive oil, sesame oil, peanut oil) 111 % of control.
Turning to `CC1=CC(C)(O)C=C(C)C1=O`, the T/C is 105 % of control (dose: 3.13 mg/kg/injection, schedule: Q01DX009 (ip), vehicle: water); 97 % of control (dose: 6.25 mg/kg/injection, schedule: Q01DX009 (ip), vehicle: water); 96 % of control (dose: 12.5 mg/kg/injection, schedule: Q01DX009 (ip), vehicle: water); 100 % of control (dose: 25.0 mg/kg/injection, schedule: Q01DX009 (ip), vehicle: water); 99 % of control (dose: 50.0 mg/kg/injection, schedule: Q01DX009 (ip), vehicle: water); 98 % of control (dose: 100.0 mg/kg/injection, schedule: Q01DX009 (ip), vehicle: water).
`NC(=O)NC(=O)C(Cc1ccccc1)c1ccccc1` (stereo unspecified): the T/C by setting is: under setting [3], 99 % of control; under setting [4], 95 % of control; under setting [5], 86 % of control.
With `Nc1cccnc1N`, the T/C (dose: 2.5 mg/kg/injection, schedule: Q01DX009 (ip), vehicle: saline) was 98 % of control; the T/C (dose: 3.12 mg/kg/injection, schedule: Q01DX009 (ip), vehicle: saline) was 106 % of control; the T/C (dose: 5.0 mg/kg/injection, schedule: Q01DX009 (ip), vehicle: saline) is 98 % of control; the T/C (dose: 6.25 mg/kg/injection, schedule: Q01DX009 (ip), vehicle: saline) is 106 % of control; the T/C (dose: 10.0 mg/kg/injection, schedule: Q01DX009 (ip), vehicle: saline) is 105 % of control; the T/C (dose: 12.5 mg/kg/injection, schedule: Q01DX009 (ip), vehicle: saline) is 92 % of control and 93 % of control. The T/C (dose: 20.0 mg/kg/injection, schedule: Q01DX009 (ip), vehicle: saline) was 101 % of control.
Turning to `COC1=CC(=O)C=C(OC)C1=O`, the T/C by setting is: (dose: 0.5 mg/kg/injection, schedule: Q01DX009 (ip), vehicle: saline with Tween-80) 109 % of control; (dose: 1.0 mg/kg/injection, schedule: Q01DX009 (ip), vehicle: saline with Tween-80) 113 % of control; (dose: 2.0 mg/kg/injection, schedule: Q01DX009 (ip), vehicle: saline with Tween-80) 119 % of control; (dose: 4.0 mg/kg/injection, schedule: Q01DX009 (ip), vehicle: saline with Tween-80) 111 % of control.
Regarding `CCOC(=O)C(CCCCn1cnc2ncnc(Cl)c21)(NC(C)=O)C(=O)OCC`, the T/C is, setting by setting: (dose: 100.0 mg/kg/injection, schedule: Q01DX001 (ip), vehicle: Klucel (hydroxypropylcellulose) (HPC)) 105 % of control; (dose: 200.0 mg/kg/injection, schedule: Q01DX001 (ip), vehicle: Klucel (hydroxypropylcellulose) (HPC)) 107 % of control; (dose: 400.0 mg/kg/injection, schedule: Q01DX001 (ip), vehicle: Klucel (hydroxypropylcellulose) (HPC)) 102 % of control.
As to `O=[N+]([O-])c1cnc(/C=N/N2CCN(/N=C/c3ncc([N+](=O)[O-])[nH]3)CC2)[nH]1`, the T/C is 90 % of control (dose: 12.5 mg/kg/injection, schedule: Q01DX009 (ip), vehicle: saline with Tween-80); 89 % of control (dose: 25.0 mg/kg/injection, schedule: Q01DX009 (ip), vehicle: saline with Tween-80); 88 % of control (dose: 50.0 mg/kg/injection, schedule: Q01DX009 (ip), vehicle: saline with Tween-80).
Regarding `N#C[S-].N#C[S-].N#C[S-].N#C[S-].[Cr+6].[NH2-].[NH2-]`, the T/C was 103 % of control (dose: 25.0 mg/kg/injection, schedule: Q04DX003 (ip), vehicle: saline) and 95 % of control (dose: 50.0 mg/kg/injection, schedule: Q04DX003 (ip), vehicle: saline).
On to `COC1C(CO)OC(n2c3c(Cl)cccc3c3c4c(c5c6cccc(Cl)c6[nH]c5c32)C(=O)NC4=O)C(O)C1O` (stereo unspecified), for which the T/C under setting [1] is 155 % of control; the T/C (dose: 50.0 mg/kg/injection, schedule: Q01DX005 (ip), vehicle: distilled water + Tween-80) was 152 % of control; the T/C under setting [2] is 155 % of control; the T/C (dose: 100.0 mg/kg/injection, schedule: Q01DX005 (ip), vehicle: distilled water + Tween-80) is 158 % of control; the T/C (dose: 100.0 mg/kg/injection, schedule: Q01DX005 (ip), vehicle: saline with Tween-80) was 155 % of control; the T/C (dose: 200.0 mg/kg/injection, schedule: Q01DX005 (ip), vehicle: distilled water + Tween-80) was 152 % of control. The T/C runs as follows: (dose: 200.0 mg/kg/injection, schedule: Q01DX005 (ip), vehicle: saline with Tween-80) 159 % of control; (dose: 400.0 mg/kg/injection, schedule: Q01DX005 (ip), vehicle: saline with Tween-80) 182 % of control.

Source of the values: PubChem BioAssay AID330 (DTP/NCI, 2004).
